From patent publication US20230151434A1, “REAWAKENING OF DORMANT TUMOR CELLS BY MODIFIED LIPIDS DERIVED FROM STRESS ACTIVATED NEUTROPHILS” (The Wistar Institute of Anatomy and Biology, priority 2020, published 2023)
Entries after “also recorded” stand apart in the source; their conditions may differ.

How the values were obtained:
[1] = system: patients with prostate cancer; conditions: cited from earlier work
LL2^cisA cells = assay: In vivo stress induction, C57BL/6 mice injected with LL2^cisA cells; set-up: species or system mouse
Source text: A total of 2.5×10^4 KPr^p53A cells were intravenously injected to NOD/SCID mice. Beginning 3 weeks after injection, mice were imaged weekly. Luciferin (PerkinElmer) was intraperitoneally injected in mice before imaging according to the manufacturer's instruction. Mice were imaged with IVIS Spectrum In Vivo Imaging System (IVIS, PerkinElmer) to detect luminescent signal coming from growing cancer cells. Mice were put under anesthesia in the induction chamber with isoflurane vaporizer set to 2.5%, at a flow rate of ˜1.5 liters/min. Mice were then transferred in the IVIS imaging stage nose cone inside the IVIS manifold (IVIS manifold nose cones flow set to ˜0.25 LPM). Animals were monitored by video during imaging. Once the images of luciferase/luciferin activity were acquired, the anesthesia was turned off and the animals were returned to their cages. […] Analysis and quantification were performed with IVIS imaging system Living Image Software 4.7.4 (PerkinElmer). […] When signal was detected, mice were sacrificed, and bioluminescent images of the harvested lung were taken. […] If no bioluminescence was detected in lungs after 80 days from last PMN injection, experiments were terminated, and lung tissue were collected. […] Bioluminescence was not detected in any LL2^CisA-injected mice at 3 weeks after injection. Mice were treated with PMN or PMN-MDSC and analyzed as described above. […]

[2] = system: LL2^cisA and AT-3^DoxA cells; assay: In vitro co-culture of chemotherapy-arrested mouse tumor cells with PMN; type: cell-based; conditions: LLC^cisA
Method: (§1) The KPr cell line (16) was maintained in RPMI 1640 medium (Corning) and 10% FBS (Gibco). Treatment of KPr cells with 250 nM 4-hydroxytamoxifen (4-OHT, Sigma-Aldrich) induced p53 expression. p53-induced cells (KPr^p53) were stained with CellTrace dye for 20 min at 37° C. according to the manufacturer's instructions (Life Technologies) and seeded at 8500 cells/cm^2 in culture in a T175 tissue culture-treated flask (Gibco). After 7 days, cells were detached and sorted based on the CellTrace dye intensity as proliferating (KPr^p53P, with lower CellTrace) and arrested cells (KPr^p53A, with higher-intensity CellTrace; see FIG. 1A for representative image). LL2 cells were seeded at 1000 cells/cm2 and treated for 3 days with 2.5 μM cisplatin (Selleckchem). After that, cells were stained with CellTrace and sorted as described above. OVCAR3 cell senescence was induced by treating 5×10^4 cells/cm2 with 0.5 μM cisplatin for 72 hours. After that time, cells were stained with CellTrace and sorted. A549 senescence was induced by 72-hour treatment with 4 μM cisplatin and cells were sorted after staining with CellTrace. Time points for sorting were chosen as the best to observe separation between arrested and proliferating cells. Cells were sorted on Astrios (Beckman Coulter) or Melody (Becton Dickinson) fluorescence-activated cell sorters.
(§2) Arrested tumor cells were plated at 100 cells/cm^2 in a 48-well tissue culture-treated plate (Costar) for coculture experiments. After 24 hours, PMN-MDSC or PMN were added at indicated ratios. Cocultures were maintained for 48 hours in RPMI 1640+10% FBS in the presence of mouse recombinant GM-CSF (10 ng/ml; Rocky Hill) to ensure neutrophil viability. All control conditions were in the presence of media with GM-CSF. All indicated supplements (NE, S100A8/A9, BGJ398, ICI 118-551, IL-2, MPO inhibitor, LPS, lipids, PMA, and thapsigargin 1 μM) were added to culture at the same time as PMN and maintained for 48 hours. After that, media were removed and replaced by fresh media without GM-CSF. After 1 week, GFP^+ cells in wells were counted via an inverted microscope. When lipid extracts were used, lipids were added to dormant cells in culture at 1 to 0.05 or 0.01 nmol as indicated in each experiment.

[3] = system: A549^cisA and OVCAR3^cisA cells; assay: In vitro co-culture of chemotherapy-arrested human tumor cells with human PMN; type: cell-based
Method: as §1, §2

KPr^p53A cells = assay: In vitro co-culture of dormant tumor cells with PMN (count of GFP+ cells); type: cell-based, mouse; conditions: KPr^p53A
Method: as §1, §2

[4] = system: KPr, KPr^p53P and KPr^p53A^react cells; assay: Cell proliferation (luciferase activity); type: cell-based, mouse; conditions: 5 or 10 μM
Method: Two thousand cells per well were seeded in 96-well clear bottom plate in triplicate (Lonza). Sixteen hours after seeding, NE (Sigma-Aldrich) at 0.5 to 5 μM final concentration or BGJ398 at 0.75 μM final concentration (Selleckchem) was added to culture. To test the effect of BGJ398t on KPr^p53A^React cells, escalating doses ranging from 0 to 10 μM final concentrations were used. To detect luciferase activity (proportional to number of cells in culture), Luciferin (PerkinElmer) was added 1:200 from stock according to the manufacturer's instructions and luminescence was measured with a Victor spectrophotometer (PerkinElmer).

| Structure (SMILES) | progression-free survival ([1]; patients with prostate cancer, compared to placebo) | disease-free survival ([1]; randomized phase III trial) | overall survival ([1]; randomized phase III trial) | frequency of tumor lesions in stressed LL2^cisA cell-bearing mice (LL2^cisA cells; 0.15 mg/ml in drinking water during stress induction) | reactivation of LLC^cisA cells by PMN treated with S100A8/A9 or NE, effect of FGFR blockade [2] | reactivation of A549^cisA cells by PMN treated with S100A8/A9 or NE, effect of FGFR blockade ([3]; A549^cisA) | reactivation of OVCAR3^cisA cells by PMN treated with S100A8/A9 or NE, effect of FGFR blockade ([3]; OVCAR3^cisA) | reactivation of KPr^p53A cells by PMN treated with S100A8/A9 or NE, effect of FGFR blockade (KPr^p53A cells) | proliferation of KPr^p53A^react cells [4] | proliferation of KPr^p53P cells [4] | proliferation of parental KPr cells [4] | mice with lung tumor lesions despite exposure to stress (LL2^cisA cells; 30 mg/kg, 3 weeks of stress) |
| --- | --- | --- | --- | --- | --- | --- | --- | --- | --- | --- | --- | --- |
| COc1cccc2c1c(O)c(C(=O)N(C)c1ccc(C(F)(F)F)cc1)c(=O)n2C [tasquinimod] | prolonged progression-free survival compared to placebo | increased disease-free survival | did not affect overall survival | significantly (P=0.007) reduced frequency of tumor lesions; also recorded: reverting the stress-induced reactivation of dormant tumor cells in mice |  |  |  |  |  |  |  |  |
| CCN1CCN(c2ccc(Nc3cc(N(C)C(=O)Nc4c(Cl)c(OC)cc(OC)c4Cl)ncn3)cc2)CC1 [BGJ398, infigratinib] |  |  |  |  | abrogated their reactivation by PMN treated with S100A8/A9 or NE | abrogated their reactivation by PMN treated with S100A8/A9 or NE | abrogated their reactivation by PMN treated with S100A8/A9 or NE | abrogated their reactivation by PMN treated with S100A8/A9 or NE | abrogated cell proliferation | did not affect proliferation of tumor cells | did not affect proliferation of tumor cells | 0 of 4 |
